# Like-named read-outs stand apart in the source and are kept apart here.
# Key:
# [1] = molecular target: T1, AR (Homo sapiens, UniProt P10275); experiment: biochemical; type: binding
# T1 sequence (P10275 1-920): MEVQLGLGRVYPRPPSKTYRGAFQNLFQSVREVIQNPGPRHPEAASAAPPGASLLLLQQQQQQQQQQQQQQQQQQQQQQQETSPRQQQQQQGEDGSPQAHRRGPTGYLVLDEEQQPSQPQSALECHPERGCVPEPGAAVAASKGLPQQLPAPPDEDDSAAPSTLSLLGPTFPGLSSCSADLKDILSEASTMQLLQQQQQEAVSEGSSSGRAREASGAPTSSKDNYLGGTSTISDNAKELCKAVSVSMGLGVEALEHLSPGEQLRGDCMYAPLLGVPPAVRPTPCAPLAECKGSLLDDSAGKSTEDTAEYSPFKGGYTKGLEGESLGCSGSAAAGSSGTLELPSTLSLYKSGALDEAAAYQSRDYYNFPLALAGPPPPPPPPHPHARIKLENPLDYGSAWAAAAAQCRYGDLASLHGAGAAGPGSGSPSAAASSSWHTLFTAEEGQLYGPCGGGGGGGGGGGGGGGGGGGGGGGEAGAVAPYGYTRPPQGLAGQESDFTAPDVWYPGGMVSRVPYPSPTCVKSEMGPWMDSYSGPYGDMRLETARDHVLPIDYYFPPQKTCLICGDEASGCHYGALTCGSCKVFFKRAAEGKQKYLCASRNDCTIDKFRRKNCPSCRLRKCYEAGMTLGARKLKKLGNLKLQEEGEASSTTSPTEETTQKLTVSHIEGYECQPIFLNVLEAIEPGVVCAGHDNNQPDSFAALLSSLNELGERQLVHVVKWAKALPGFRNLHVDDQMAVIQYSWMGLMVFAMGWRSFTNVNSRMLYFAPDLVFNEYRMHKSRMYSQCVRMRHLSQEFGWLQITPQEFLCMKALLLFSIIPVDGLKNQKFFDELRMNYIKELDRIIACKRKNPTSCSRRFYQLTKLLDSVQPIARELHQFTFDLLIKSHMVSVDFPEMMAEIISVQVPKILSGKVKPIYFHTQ
# [2] = test system: levator ani muscle; experiment: Hershberger assays of compounds H-1 to H-4; type: in vivo, rat; conditions: calculated in Win Non-Lin
# Procedure: FIG. 3 depicts results of Hershberger assays of compounds of the invention as described in Example 17. AUC is area under the concentration-time curve.
# Hershberger assays as described above for Formulas VIII-XIV were also performed on compounds H-1, H-2, H-3, & H-4, as reported in FIG. 3, along with AR binding data in some cases in Table 11. The reported Emax values were calculated in Win Non-Lin®.
# [3] = test system: levator ani muscle; experiment: Levator ani muscle weight in castrated rats treated subcutaneously for 14 days; type: in vivo, rat; conditions: castrated Sprague Dawley rats, subcutaneous, 3 mg/day
# Source text: At sacrifice, organs were weighed and expressed as raw organ weights. Values are expressed as average±S.D. Increased size and strength of pelvic floor muscles is one mechanism by which SARMs are believed to affect UI.
# At sacrifice, organs were weighed and expressed as raw organ weights. Values are expressed as average±S.D.
# [4] = test system: prostate, seminal vesicles and levator ani muscle; experiment: Androgenic and anabolic activity in castrated immature male rats, subcutaneous osmotic pumps, 14 days; type: in vivo, rat
# Procedure: Immature male Sprague-Dawley rats, weighing 90 to 100 g, were purchased from Harlan Biosciences (Indianapolis, Ind.). The animals were maintained on a 12 hour light-dark cycle with food and water available ad libitum.
# Rats were randomly distributed into treatment groups groups. One day prior to the start of drug treatment, animals were individually removed from the cage, weighed and anesthetized with an intraperitoneal dose of ketamine/xylazine (87/13 mg/kg; approximately 1 mL per kg). When appropriately anesthetized (i.e., no response to toe pinch), the animals' ears were marked for identification purposes. Animals were then placed on a sterile pad and their abdomen and scrotum washed with betadine and 70% alcohol. The testes were removed via a midline scrotal incision, with sterile suture being used to ligate supra-testicular tissue prior to surgical removal of each testis. The surgical wound site was closed with sterile stainless steel wound clips, and the site cleaned with betadine. The animals were allowed to recover on a sterile pad (until able to stand) and then returned to their cage.
# Twenty-four hours later, animals were re-anesthetized with ketamine/xylazine, and an Alzet osmotic pump(s) (model 2002) was placed subcutaneouly in the scapular region. In this instance, the scapular region was shaved and cleaned (betadine and alcohol) and a small incision (1 cm) made using a sterile scalpel. The osmotic pump was inserted and the wound closed with a sterile stainless steel wound clip. Animals were allowed to recover and were returned to their cage. Osmotic pumps contained the appropriate treatment dissolved in polyethylene glycol 300 (PEG300). Osmotic pumps were filled with the appropriate solution one day prior to implantation. Animals were monitored daily for signs of acute toxicity to drug treatment (e.g., lethargy, rough coat).
# After 14 days of drug treatment, rats were anesthetized with ketamine/xylazine. Animals were then sacrificed by exsanguinations under anesthesia. A blood sample was collected by venipuncture of the abdominal aorta, and submitted for complete blood cell analysis. A portion of the blood was placed in a separate tube, centrifuged at 12,000 g for 1 minute, and the plasma layer removed and frozen at −20° C. The ventral prostates, seminal vesicles, levator ani muscle, liver, kidneys, spleen, lungs, and heart were removed, cleared of extraneous tissue, weighed, and placed in vials containing 10% neutral buffered formalin. Preserved tissues were sent for histopathological analysis.
# For data analysis, the weights of all organs were normalized to body weight, and analyzed for any statistical significant difference by single-factor ANOVA. The weights of prostate and seminal vesicle were used as indexes for evaluation of androgenic activity, and the levator ani muscle weight was used to evaluate the anabolic activity.
# [5] = test system: female rats with experimentally induced stress urinary incontinence; conditions: rat models of SUI; cited from earlier work
# [6] = castrated rats, 0.10 mg/day, 14 days
# [7] = castrated rats, 0.50 mg/day, 14 days
# [8] = castrated rats, 0.75 mg/day, 14 days
# [9] = castrated rats, 1.00 mg/day, 14 days
# [10] = compared with testosterone propionate
structure (smiles),measurement,setting,value
C[C@](O)(COc1ccc(Br)cc1)C(=O)Nc1ccc([N+](=O)[O-])c(C(F)(F)F)c1 [Compound H-3],Ki,[1]; read-out: Ki,13 ± 2 nM
same,Emax in levator ani muscle,[2],64 ± 4 % of intact control
"C[C@](O)(COc1ccc(F)cc1)C(=O)Nc1ccc(C#N)c(C(F)(F)F)c1 [Compound X, (S)—N-(4-Cyano-3-(trifluoromethyl)phenyl)-3-(4-fluorophenoxy)-2-hydroxy-2-methylpropanamide]",levator ani muscle weight,[3],elicits hypertrophy of the levator ani muscle
same,Ki,[1]; read-out: binding affinity,3.3 ± 0.08 nM
same,Levator Ani organ weight (Mean ± S.D.),[4]; [6],54.9 ± 5.77 % of intact
same,Prostate organ weight (Mean ± S.D.),[4]; [6],6.4 ± 0.82 % of intact
same,Seminal Vesicles organ weight (Mean ± S.D.),[4]; [6],8.8 ± 1.18 % of intact
same,Levator Ani organ weight (Mean ± S.D.),[4]; [7],55.0 ± 9.23 % of intact
same,Prostate organ weight (Mean ± S.D.),[4]; [7],6.2 ± 0.56 % of intact
same,Seminal Vesicles organ weight (Mean ± S.D.),[4]; [7],9.3 ± 1.57 % of intact
same,Levator Ani organ weight (Mean ± S.D.),[4]; [8],68.9 ± 8.46 % of intact
same,Prostate organ weight (Mean ± S.D.),[4]; [8],7.6 ± 0.74 % of intact
same,Seminal Vesicles organ weight (Mean ± S.D.),[4]; [8],9.8 ± 3.65 % of intact
same,Levator Ani organ weight (Mean ± S.D.),[4]; [9],75.2±9.51 % of intact
same,Prostate organ weight (Mean ± S.D.),[4]; [9],8.7±1.39 % of intact
same,Seminal Vesicles organ weight (Mean ± S.D.),[4]; [9],10.7±0.91 % of intact
"C[C@](O)(COc1ccc(Cl)cc1)C(=O)Nc1ccc(C#N)c(C(F)(F)F)c1 [Compound XI, (S)—N-(4-Cyano-3-(trifluoromethyl)phenyl)-3-(4-chlorophenoxy)-2-hydroxy-2-methylpropanamide]",Ki,[1]; read-out: binding affinity,3.4 ± 0.08 nM
same,dose able to maintain levator ani muscle weight of castrated animals at the level of intact animals,"[4]; castrated rats, 14 days",0.3 mg/day
same,"weights of prostate, seminal vesicle and levator ani muscle","[4]; castrated rats, 14 days, FIG. 2","dose-dependent increases in prostate, seminal vesicle and levator ani muscle weights"
same,potency and intrinsic activity in increasing the weight of levator ani muscle,[4]; [10],greater potency and intrinsic activity
same,potency and intrinsic activity in increasing the weights of prostate and seminal vesicle,[4]; [10],lower potency and intrinsic activity
"C[C@]12CC[C@H]3[C@@H](CCC4=CC(=O)CC[C@@]43C)[C@@H]1CC[C@@H]2O [Testosterone, testosterone]",leak point pressures and size of myofibers,[5],improve leak point pressures and significantly increase the size of myofibers

# — patent US20180353460A1, “METHODS OF TREATING UROLOGICAL DISORDERS USING SARMs” (priority 2014, published 2018)
